From publication PMC10035947, “Development of novel anilinoquinazoline-based carboxylic acids as non-classical carbonic anhydrase IX and XII inhibitors” (Journal of Enzyme Inhibition and Medicinal Chemistry, 2023)
Where two headings read alike, the source gives them in different places.

Experiments:
SNB-19 = assay: NCI SRB assay; format: cell-based, human; conditions: for CC50: read-out: LC50 (the source's name)
KM12 = assay: NCI SRB assay; format: cell-based, human
DU-145 = assay: NCI SRB assay; format: cell-based, human; conditions: for CC50: read-out: LC50 (the source's name)
K-562 = assay: NCI SRB assay; format: cell-based, human; conditions: for CC50: read-out: LC50 (the source's name)
SK-MEL-5 = assay: NCI SRB assay; format: cell-based, human
NCI-H322M = assay: NCI SRB assay; format: cell-based, human; conditions: for CC50: read-out: LC50 (the source's name)
SN12C = assay: NCI SRB assay; format: cell-based, human; conditions: for CC50: read-out: LC50 (the source's name)
HCT-116 = assay: NCI SRB assay; format: cell-based, human; conditions: for CC50: read-out: LC50 (the source's name)
hCA I = target: T1, hCA I (Homo sapiens, UniProt P00915); assay: stopped flow CO2 hydrase assay; format: biochemical; conditions: mean from 3 assays
T1 construct: made in house
Procedure: (§1) Carbonic anhydrase inhibition assay
(§2) The carbonic anhydrase catalyzed CO2 hydration actions for the quinazoline-based […]
(§3) Photophysics stopped-flow, as described previously. The enzymes are recombinant proteins prepared in our lab. Phenol red (at a concentration of 0.2 mM) has been used as indicator, working at the absorbance maximum of 557 nm, with 20 mM Hepes (pH 7.5) as buffer, and 20 mM Na2SO4 (for maintaining constant the ionic strength), following the initial rates of the CA- […]
(§4) 1.7 to 17 mM for the determination of the kinetic parameters and inhibition constants. For each […]
(§5) initial velocity. The uncatalyzed rates were determined in the same manner and subtracted from the total observed rates. Stock solutions of inhibitor (0.1 mM) were prepared in distilled-deionized water and dilutions up to 0.01 nM were done thereafter with the assay buffer. Inhibitor and enzyme solutions were preincubated together for 15 min at room temperature prior to assay, in order to allow for the formation of the E-I complex. The inhibition constants were obtained by non-linear least-squares methods using PRISM 3 and the Cheng-Prusoff equation, and represent the mean from at least three different determinations.

hCA IX = target: T2, hCA IX (Homo sapiens, UniProt Q16790); assay: stopped flow CO2 hydrase assay; format: biochemical
T2 construct: made in house
Procedure: as §1, §2, §3, §4, §5

hCA XII = target: T3, hCA XII (Homo sapiens, UniProt O43570); assay: stopped flow CO2 hydrase assay; format: biochemical
T3 construct: made in house
Procedure: as §1, §2, §3, §4, §5

SK-MEL-2 = assay: NCI SRB assay; format: cell-based, human
SF-268 = assay: NCI SRB assay; format: cell-based, human; conditions: for CC50: read-out: LC50 (the source's name)
SK-MEL-28 = assay: NCI SRB assay; format: cell-based, human; conditions: for CC50: read-out: LC50 (the source's name)
OVCAR-3 = assay: NCI SRB assay; format: cell-based, human
RPMI-8226 = assay: NCI SRB assay; format: cell-based, human
[1] = Homo sapiens, SNB-19, SNB-19, 5-dose
[2] = Homo sapiens, KM12, KM 12, 5-dose
[3] = Homo sapiens, K562, K-562, 5-dose
[4] = Homo sapiens, SN12C, SN 12 C, 5-dose

T3 sequence (O43570 25-354): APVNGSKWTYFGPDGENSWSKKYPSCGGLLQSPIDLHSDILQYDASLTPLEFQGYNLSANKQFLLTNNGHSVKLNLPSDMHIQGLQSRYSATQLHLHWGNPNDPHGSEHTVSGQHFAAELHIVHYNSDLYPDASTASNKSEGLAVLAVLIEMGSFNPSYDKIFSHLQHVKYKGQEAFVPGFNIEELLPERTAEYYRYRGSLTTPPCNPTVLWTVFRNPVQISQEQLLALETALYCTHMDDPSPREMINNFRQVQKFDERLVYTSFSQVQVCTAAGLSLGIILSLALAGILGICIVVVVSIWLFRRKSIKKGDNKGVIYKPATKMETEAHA
T1 sequence (P00915 whole entry): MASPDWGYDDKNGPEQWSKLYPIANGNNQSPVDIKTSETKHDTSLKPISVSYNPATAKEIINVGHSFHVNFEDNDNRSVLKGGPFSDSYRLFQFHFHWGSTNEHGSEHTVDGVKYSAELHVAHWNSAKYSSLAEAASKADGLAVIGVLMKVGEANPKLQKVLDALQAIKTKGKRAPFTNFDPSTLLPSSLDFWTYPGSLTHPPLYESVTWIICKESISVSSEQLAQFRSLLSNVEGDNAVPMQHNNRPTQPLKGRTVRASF

## Cc1ccc(-c2nc(Nc3ccccc3C(=O)O)c3ccccc3n2)cc1 [6b, 2-((2-(p-Tolyl)quinazolin-4-yl)amino)benzoic acid]
SNB-19; [1]
  GI50: 8.09 µM
  CC50: > 100 µM
SNB-19; SNB-19, 10 μM
  GI%: 91%
SNB-19; SNB-19, 1.00E-5 Molar
  Growth Percent: 8.82%
SNB-19; SNB-19, 5-dose
  GI50: 8.1 µM
  TGI: 81.7 µM
  CC50: < 100 µM
SNB-19; SNB-19, 5-dose, listed as D - 835857
  TGI: 8.17E-5 Molar
KM12; [2]
  LC50: < 100 µM
  GI50: 13.7 µM
KM12; Homo sapiens, KM12, KM12, 5-dose
  LC50: > 100 µM
KM12; KM12, 10 μM
  GI%: 92%
KM12; KM12, 1.00E-5 Molar
  Growth Percent: 8.37%
KM12; KM 12, 5-dose
  TGI: 81.2 µM
KM12; KM12, 5-dose
  TGI: 8.12E-5 Molar
DU-145; DU-145, 10 μM
  GI%: 81%
DU-145; DU-145, 1.00E-5 Molar
  Growth Percent: 19.37%
DU-145; DU-145, 5-dose
  TGI: <100 µM
  CC50: < 100 µM
DU-145; DU-145, 5-dose, listed as D - 835857
  TGI: > 1.00E-4 Molar
DU-145; Homo sapiens, DU-145, DU-145, 5-dose
  CC50: > 100 µM
DU-145; Homo sapiens, DU-145, 5-dose
  GI50: 17.7 µM
K-562; [3]
  GI50: 7.05 µM
  CC50: > 100 µM
K-562; K-562, 10 μM
  GI%: 82%
K-562; K-562, 1.00E-5 Molar
  Growth Percent: 17.64%
K-562; K-562, 5-dose
  TGI: <100 µM
  CC50: < 100 µM
K-562; K-562, 5-dose, listed as D - 835857
  TGI: > 1.00E-4 Molar
SK-MEL-5; Homo sapiens, SK-MEL-5, SK-MEL-5, 5-dose
  GI50: 5.32 µM
SK-MEL-5; Homo sapiens, SK-MEL-5, 5-dose, read-out: LC50 (the source's name)
  CC50: 57.5 µM
SK-MEL-5; SK-MEL-5, 10 μM
  GI%: 124%
SK-MEL-5; SK-MEL-5, 1.00E-5 Molar
  Growth Percent: -24.79%
SK-MEL-5; SK-MEL-5, 5-dose
  GI50: 5.3 µM
  TGI: 20.3 µM
SK-MEL-5; SK-MEL-5, 5-dose, listed as D - 835857
  TGI: 2.03E-5 Molar
NCI-H322M; 10 μM
  GI%: 66%
NCI-H322M; 1.00E-5 Molar
  Growth Percent: 33.77%
NCI-H322M; 5-dose
  TGI: <100 µM
  CC50: < 100 µM
NCI-H322M; 5-dose, listed as D - 835857
  TGI: > 1.00E-4 Molar
NCI-H322M; Homo sapiens, 5-dose
  GI50: 13.6 µM
  CC50: > 100 µM
SN12C; Homo sapiens, SN12C, 5-dose
  CC50: > 100 µM
SN12C; [4]
  CC50: < 100 µM
  GI50: 11 µM
SN12C; SN12C, 10 μM
  GI%: 78%
SN12C; SN12C, 1.00E-5 Molar
  Growth Percent: 22.24%
SN12C; SN 12 C, 5-dose
  TGI: 60.4 µM
SN12C; SN12C, 5-dose
  TGI: 6.04E-5 Molar
HCT-116; HCT-116, 10 μM
  GI%: 93%
HCT-116; HCT-116, 1.00E-5 Molar
  Growth Percent: 6.70%
HCT-116; HCT-116, 5-dose
  TGI: 36.1 µM
  CC50: < 100 µM
HCT-116; HCT-116, 5-dose, listed as D - 835857
  TGI: 3.61E-5 Molar
HCT-116; Homo sapiens, HCT-116, HCT-116, 5-dose
  CC50: > 100 µM
HCT-116; Homo sapiens, HCT-116, 5-dose
  GI50: 10.1 µM
hCA I
  Ki: > 100 µM
hCA IX; KI hCA II / KI hCA IX
  Selectivity ratio II/IX: 1.40
hCA IX; mean from 3 assays
  Ki: 34.4 µM
hCA XII; KI hCA I / KI hCA XII
  Selectivity ratio I/XII: 14.1
hCA XII; KI hCA II / KI hCA XII
  Selectivity ratio II/XII: 6.79
hCA XII; mean from 3 assays
  Ki: 7.1 µM
SK-MEL-2; Homo sapiens, SK-MEL-2, SK-MEL-2, 5-dose
  GI50: 3.65 µM
SK-MEL-2; Homo sapiens, SK-MEL-2, 5-dose, read-out: LC50 (the source's name)
  CC50: 83.5 µM
SK-MEL-2; SK-MEL-2, 10 μM
  GI%: 94%
SK-MEL-2; SK-MEL-2, 1.00E-5 Molar
  Growth Percent: 5.75%
SK-MEL-2; SK-MEL-2, 5-dose
  GI50: 3.7 µM
  TGI: 15.6 µM
SK-MEL-2; SK-MEL-2, 5-dose, listed as D - 835857
  TGI: 1.56E-5 Molar
SF-268; Homo sapiens, SF-268, SF-268, 5-dose
  CC50: > 100 µM
SF-268; Homo sapiens, SF-268, 5-dose
  GI50: 14.3 µM
SF-268; SF-268, 10 μM
  GI%: 89%
SF-268; SF-268, 1.00E-5 Molar
  Growth Percent: 11.24%
SF-268; SF-268, 5-dose
  TGI: <100 µM
  CC50: < 100 µM
SF-268; SF-268, 5-dose, listed as D - 835857
  TGI: > 1.00E-4 Molar
SK-MEL-28; Homo sapiens, SK-MEL-28, SK-MEL-28, 5-dose
  CC50: > 100 µM
SK-MEL-28; Homo sapiens, SK-MEL-28, 5-dose
  GI50: 15.9 µM
SK-MEL-28; SK-MEL-28, 10 μM
  GI%: 71%
SK-MEL-28; SK-MEL-28, 1.00E-5 Molar
  Growth Percent: 28.75%
SK-MEL-28; SK-MEL-28, 5-dose
  TGI: 97.4 µM
  CC50: < 100 µM
SK-MEL-28; SK-MEL-28, 5-dose, listed as D - 835857
  TGI: 9.74E-5 Molar
OVCAR-3; Homo sapiens, OVCAR-3, 5-dose
  GI50: 13.1 µM
OVCAR-3; Homo sapiens, OVCAR-3, 5-dose, read-out: LC50 (the source's name)
  CC50: > 100 µM
OVCAR-3; OVCAR-3, 10 μM
  GI%: 94%
OVCAR-3; OVCAR-3, 1.00E-5 Molar
  Growth Percent: 6.01%
OVCAR-3; OVCAR-3, 5-dose
  TGI: 5.13E-5 Molar
RPMI-8226; Homo sapiens, RPMI-8226, RPMI-8226, 5-dose
  GI50: 4.44 µM
RPMI-8226; Homo sapiens, RPMI-8226, RPMI-8226, 5-dose, read-out: LC50 (the source's name)
  CC50: > 100 µM
RPMI-8226; RPMI-8226, 10 μM
  GI%: 83%
RPMI-8226; RPMI-8226, 1.00E-5 Molar
  Growth Percent: 17.08%
RPMI-8226; RPMI-8226, 5-dose
  GI50: 4.4 µM
